Source: PubChem BioAssay AID330 (DTP/NCI, 2004)
Several values for one entry are separate records, joined by “and”; a condition that tells them apart may be missing. Equal entries are not always repeated. Toxic doses and inconclusive results are not listed. Peptide text beside a SMILES is read from it. * marks the point of attachment. Cbz = O=C(OCc1ccccc1)*

System: P388 leukemia ip, CD2F1 mice, survival T/C
Assay: NCI In Vivo Anticancer Drug Screen. Data for tumor model P388 Leukemia (intraperitoneal) in CD2F1 (CDF1) mice
Conditions: endpoint: median survival time, higher = longer survival
Method in brief: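 Mice carrying the transplanted tumor received test compound or vehicle. Survival was recorded in each group, and the value is the treated-group measurement divided by that of the vehicle-treated control group.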

[1] = dose: 100.0 mg/kg/injection, schedule: Q04DX002 (ip), vehicle: Klucel (hydroxypropylcellulose) (HPC)
[2] = dose: 200.0 mg/kg/injection, schedule: Q04DX002 (ip), vehicle: Klucel (hydroxypropylcellulose) (HPC)
[3] = dose: 400.0 mg/kg/injection, schedule: Q04DX002 (ip), vehicle: Klucel (hydroxypropylcellulose) (HPC)
[4] = dose: 50.0 mg/kg/injection, schedule: Q01DX005 (ip), vehicle: saline with Tween-80
[5] = dose: 100.0 mg/kg/injection, schedule: Q01DX005 (ip), vehicle: saline with Tween-80
[6] = dose: 200.0 mg/kg/injection, schedule: Q01DX005 (ip), vehicle: saline with Tween-80
[7] = dose: 60.0 mg/kg/injection, schedule: Q01DX005 (ip), vehicle: saline with Tween-80
[8] = dose: 120.0 mg/kg/injection, schedule: Q01DX005 (ip), vehicle: saline with Tween-80
[9] = dose: 50.0 mg/kg/injection, schedule: Q01DX005 (ip), vehicle: saline
[10] = dose: 25.0 mg/kg/injection, schedule: Q01DX009 (ip), vehicle: Klucel (hydroxypropylcellulose) (HPC)
[11] = dose: 50.0 mg/kg/injection, schedule: Q01DX009 (ip), vehicle: Klucel (hydroxypropylcellulose) (HPC)
[12] = dose: 100.0 mg/kg/injection, schedule: Q01DX005 (ip), vehicle: saline
[13] = dose: 100.0 mg/kg/injection, schedule: Q01DX009 (ip), vehicle: Klucel (hydroxypropylcellulose) (HPC)
[14] = dose: 200.0 mg/kg/injection, schedule: Q01DX009 (ip), vehicle: Klucel (hydroxypropylcellulose) (HPC)
[15] = dose: 25.0 mg/kg/injection, schedule: Q01DX009 (ip), vehicle: saline with Tween-80
[16] = dose: 50.0 mg/kg/injection, schedule: Q01DX009 (ip), vehicle: saline with Tween-80
[17] = dose: 100.0 mg/kg/injection, schedule: Q04DX003 (ip), vehicle: saline with Tween-80
[18] = dose: 200.0 mg/kg/injection, schedule: Q04DX003 (ip), vehicle: saline with Tween-80
[19] = dose: 12.5 mg/kg/injection, schedule: Q01DX009 (ip), vehicle: saline with Tween-80
[20] = dose: 1.56 mg/kg/injection, schedule: Q01DX009 (ip), vehicle: saline
[21] = dose: 240.0 mg/kg/injection, schedule: Q01DX005 (ip), vehicle: saline with Tween-80
[22] = dose: 400.0 mg/kg/injection, schedule: Q04DX003 (ip), vehicle: saline with Tween-80
[23] = dose: 15.0 mg/kg/injection, schedule: Q01DX005 (ip), vehicle: Klucel (hydroxypropylcellulose) (HPC)
[24] = dose: 30.0 mg/kg/injection, schedule: Q01DX005 (ip), vehicle: Klucel (hydroxypropylcellulose) (HPC)
[25] = dose: 60.0 mg/kg/injection, schedule: Q01DX005 (ip), vehicle: Klucel (hydroxypropylcellulose) (HPC)

O=C1c2ccccc2-c2ccc(N=Cc3c[nH]c4ccccc34)cc21
T/C (dose: 50.0 mg/kg/injection, schedule: Q01DX005 (ip), vehicle: saline + Tween-80 + alcohol): 104 % of control
T/C (dose: 100.0 mg/kg/injection, schedule: Q01DX005 (ip), vehicle: saline + Tween-80 + alcohol): 98 % of control
T/C (dose: 200.0 mg/kg/injection, schedule: Q01DX005 (ip), vehicle: saline + Tween-80 + alcohol): 98 % of control

NC(=S)N/N=C/c1c(-c2ccc(-c3ccccc3)cc2)nc2n1CCS2
T/C [1]: 98 % of control
T/C [2]: 104 % of control
T/C [3]: 99 % of control

CCc1ccc2c(c1)C(O)(c1ccccc1)c1c(c(-c3ccccc3)c3ccccc3c1-c1ccccc1)C2(O)c1ccccc1 (stereo not given)
T/C [4]: 92 % of control
T/C [5]: 89 % of control
T/C [6]: 89 % of control

CC(C)(C)CC(C)(C)c1ccc(OCCO)cc1
T/C (dose: 50.0 mg/kg/injection, schedule: Q04DX003 (ip), vehicle: saline): 91 % of control
T/C (dose: 100.0 mg/kg/injection, schedule: Q04DX003 (ip), vehicle: saline): 108 % of control

CCOc1ccccc1NC(=O)/C(Cl)=C(\Cl)C(=O)O
T/C [7]: 109 % of control
T/C [8]: 107 % of control

CN1C2CCC1C(Br)C=C2c1ccccc1 (stereo not given)
T/C [9]: 109 % of control

CN(C)C1=CC(N(C)C)=NC12C(=N)N(C)C(=O)N(C)C2=O (stereo not given)
T/C (dose: 50.0 mg/kg/injection, schedule: Q01DX005 (ip), vehicle: water): 104 % of control
T/C (dose: 100.0 mg/kg/injection, schedule: Q01DX005 (ip), vehicle: water): 104 % of control
T/C (dose: 200.0 mg/kg/injection, schedule: Q01DX005 (ip), vehicle: water): 108 % of control

CCOC(=O)Cc1ccc(-c2csc(Nc3ccc(Cl)cc3)n2)cc1
T/C (dose: 100.0 mg/kg/injection, schedule: Q04DX003 (ip), vehicle: Klucel (hydroxypropylcellulose) (HPC)): 96 % of control
T/C (dose: 200.0 mg/kg/injection, schedule: Q04DX003 (ip), vehicle: Klucel (hydroxypropylcellulose) (HPC)): 104 % of control
T/C (dose: 400.0 mg/kg/injection, schedule: Q04DX003 (ip), vehicle: Klucel (hydroxypropylcellulose) (HPC)): 106 % of control

C/C=C(/C)C(=O)OC1c2c(C)coc2CC23OC2CCC(C)C13C (stereo not given)
T/C (dose: 12.5 mg/kg/injection, schedule: Q01DX009 (ip), vehicle: Klucel (hydroxypropylcellulose) (HPC)): 98 % of control
T/C [10]: 105 % of control
T/C [11]: 99 % of control

CC(=O)Oc1ccccc1C(=O)OC(C)c1ccccc1 (stereo not given)
T/C (dose: 50.0 mg/kg/injection, schedule: Q01DX005 (ip), vehicle: Klucel (hydroxypropylcellulose) (HPC)): 100 % of control
T/C (dose: 100.0 mg/kg/injection, schedule: Q01DX005 (ip), vehicle: Klucel (hydroxypropylcellulose) (HPC)): 98 % of control
T/C (dose: 200.0 mg/kg/injection, schedule: Q01DX005 (ip), vehicle: Klucel (hydroxypropylcellulose) (HPC)): 104 % of control

COc1ccc2cc(Cl)c3ccccc3c2c1
T/C [4]: 87 % of control
T/C [5]: 90 % of control
T/C [6]: 86 % of control

Cc1c2ccncc2c(CN(CCCl)CCCl)c2c3ccccc3n(C)c12
T/C (dose: 20.0 mg/kg/injection, schedule: Q01DX005 (ip), vehicle: saline): 150 % of control and 160 % of control
T/C [9]: 118 % of control
T/C [12]: 182 % of control

CC(C)CC(NC(=O)C(Cc1ccccc1)NC(=O)OCc1ccccc1)C(=O)O (stereo not drawn) (Cbz-Phe-Leu-OH; configuration not given here)
T/C [4]: 108 % of control
T/C [5]: 105 % of control

COc1cc(N2C(=O)CSC2=S)cc(OC)c1OC
T/C [11]: 100 % of control
T/C [13]: 89 % of control
T/C [14]: 101 % of control

CC(C)COP(=O)(OCC(C)C)OCC(C)C
T/C [15]: 100 % of control
T/C [16]: 109 % of control
T/C (dose: 50.0 mg/kg/injection, schedule: Q04DX003 (ip), vehicle: saline with Tween-80): 100 % of control
T/C [17]: 90 % of control
T/C [18]: 95 % of control

O=C(NC(Cc1ccc(Br)cc1)C(=O)O)c1cccc(Cl)c1 (stereo not given)
T/C [9]: 100 % of control
T/C [12]: 101 % of control

Oc1ccc(O)c2nc3ccccc3nc12
T/C (dose: 1.56 mg/kg/injection, schedule: Q01DX009 (ip), vehicle: distilled water + Tween-80): 104 % of control
T/C (dose: 3.12 mg/kg/injection, schedule: Q01DX009 (ip), vehicle: distilled water + Tween-80): 105 % of control
T/C (dose: 6.25 mg/kg/injection, schedule: Q01DX009 (ip), vehicle: distilled water + Tween-80): 104 % of control and 97 % of control

NC1=NC(O)C=C1 (stereo not given)
T/C (dose: 12.5 mg/kg/injection, schedule: Q01DX005 (ip), vehicle: saline): 105 % of control
T/C (dose: 25.0 mg/kg/injection, schedule: Q01DX005 (ip), vehicle: saline): 107 % of control

COc1ccc(-c2n(O)c(C)c(C)[n+]2[O-])cc1
T/C [19]: 101 % of control
T/C [15]: 100 % of control
T/C [16]: 102 % of control and 92 % of control

Ic1ccc(C2CC(c3ccccc3)=NN2c2ccccc2)cc1 (stereo not given)
T/C [10]: 97 % of control
T/C [11]: 87 % of control
T/C [13]: 87 % of control
T/C [14]: 90 % of control

CO/N=C/c1ccc[n+](C)c1
T/C [4]: 105 % of control
T/C [5]: 105 % of control

Nc1ccc(O)cc1O
T/C [20]: 98 % of control
T/C (dose: 3.12 mg/kg/injection, schedule: Q01DX009 (ip), vehicle: saline): 109 % of control
T/C (dose: 6.25 mg/kg/injection, schedule: Q01DX009 (ip), vehicle: saline): 106 % of control
T/C (dose: 12.5 mg/kg/injection, schedule: Q01DX009 (ip), vehicle: saline): 118 % of control and 119 % of control

CCc1nc2ccccc2c(=O)n1C
T/C [19]: 100 % of control
T/C [15]: 100 % of control
T/C [16]: 95 % of control

Nc1nc(N)c2[nH]c(CNc3ccc(C(=O)O)cc3)nc2n1
T/C [7]: 89 % of control
T/C [8]: 89 % of control
T/C [21]: 86 % of control

O=c1c(N=Nc2ccccc2Cl)c(O)n(-c2ccc(Br)cc2)c(=S)n1-c1ccccc1
T/C (dose: 100.0 mg/kg/injection, schedule: Q04DX002 (ip), vehicle: saline with Tween-80): 96 % of control
T/C (dose: 200.0 mg/kg/injection, schedule: Q04DX002 (ip), vehicle: saline with Tween-80): 90 % of control
T/C (dose: 400.0 mg/kg/injection, schedule: Q04DX002 (ip), vehicle: saline with Tween-80): 90 % of control

O=C(O)CCCCc1ccc(CCCCC(=O)O)c2ccccc12
T/C [17]: 103 % of control
T/C [18]: 102 % of control
T/C [22]: 99 % of control

CSC1=CC(=NCc2ccccc2)CC(C)(C)S1
T/C [23]: 110 % of control
T/C [24]: 104 % of control
T/C [25]: 101 % of control and 105 % of control

CCN=c1c([N+](=O)[O-])c(NC(=O)c2ccccc2)sn1CC
T/C [1]: 97 % of control
T/C [2]: 99 % of control
T/C [3]: 107 % of control

CC(C)c1ccc(OC(=N)c2ccccc2)cc1
T/C [17]: 98 % of control
T/C [18]: 100 % of control
T/C [22]: 89 % of control

CCOC(=O)/N=[N+](\[O-])c1cccc(Cl)c1
T/C (dose: 100.0 mg/kg/injection, schedule: Q01DX001 (ip), vehicle: saline with Tween-80): 110 % of control
T/C (dose: 200.0 mg/kg/injection, schedule: Q01DX001 (ip), vehicle: saline with Tween-80): 102 % of control

CNc1cc(C)c2ccc(N(C)C)cc2n1
T/C (dose: 7.5 mg/kg/injection, schedule: Q01DX005 (ip), vehicle: Klucel (hydroxypropylcellulose) (HPC)): 98 % of control
T/C [23]: 102 % of control
T/C [24]: 101 % of control
T/C [25]: 93 % of control

N#CC(C(=O)CCC(=O)NCCc1ccccc1)c1nc2ccccc2s1 (stereo not given)
T/C [7]: 103 % of control
T/C [8]: 100 % of control
T/C [21]: 100 % of control

C=CC[P+](CC)(c1ccccc1)c1ccccc1
T/C (dose: 0.78 mg/kg/injection, schedule: Q01DX009 (ip), vehicle: saline): 95 % of control
T/C [20]: 88 % of control
T/C (dose: 3.13 mg/kg/injection, schedule: Q01DX009 (ip), vehicle: saline): 93 % of control
